Our source for the viability, T/C and IC50 values is PubChem BioAssay AID1918939 (Molecular Pharmacology Branch, DTP, NCI, 2023).

One may read the viability, T/C as the ratio of treated to control. The term IC50 denotes the point on the concentration scale where inhibition reaches its midpoint.

Molecules are shown by their SMILES. Several values for one entry are separate records, joined by “and”; a condition that tells them apart may be missing. Identical values can stand only once. A value given as a limit tells only on which side of the number the result lay.

The subject of this experiment is 653999-131-R-J2-PDC complex spheroid viability. Put plainly: Anticancer human tumor 653999-131-R-J2-PDC patient-derived lung adenocarcinoma cell line growth inhibition. The note with it: for viability, T/C: stronger effect = lower value. From the text:
Multicellular complex tumor spheroid response to LSD1 Inhibitor Iadademstat in combination with a variety of drugs and investigational agents in selected tumor cell lines
The current study was undertaken to assess response to LSD1 inhibitors in combination with standard-of-care drugs and investigational agents in solid tumor complex spheroid models as well as in the K-562 leukemia. Complex spheroids include a stromal component modeled by human endothelial cells (HUVEC) and fibroblasts modeled by human mesenchymal stem cells (MSCs). The concentration ranges selected for each drug and investigational agent were based upon clinically achievable concentrations if the clinical Cmax of the agent was known.
Compounds. The drugs and investigational agents used in this study are listed on Table 1. All of the agents used, including staurosporine (NSC755774) and gemcitabine (NSC613327), were obtained from the Developmental Therapeutics Program, NCI. FDA-approved anticancer drugs are available from the NCI at http://dtp.nci.nih.gov/branches/dscb/oncology_drugset_explanation.html. Drugs and investigational agents were >95% pure by proton nuclear magnetic resonance (NMR) and liquid chromatography/mass spectrometry (LC/MS). Stock solutions were prepared at 400x in DMSO, stored at -70 degrees C, and diluted in fresh medium prior to their use. The final concentration of DMSO in cell culture wells never exceeded 0.25% (v/v). The FDA-approved anticancer drug set is available from the Developmental Therapeutics Program at https://dtp.cancer.gov/organization/dscb/obtaining/available_plates.htm. All drugs and investigational agents were tested over a range starting from a high concentration at or near the clinical Cmax and decreasing in half-log increments. If the clinical Cmax for an agent had not been determined, the highest concentration tested was 10 microM.
Cell Lines. The patient-derived cancer cell (PDC) lines: 292921-168-R-J2-PDC, K24384-001-R-PDC, and 521955-158-R2-J5-PDC pancreatic carcinomas, 556581-035-R-J1 ovarian carcinoma, 324938-238-R-J1-PDC, 855422-203-R-J1-PDC and 883617-216-R-J1-PDC urothelial bladder carcinomas, 743489-274-T-PDC renal cell carcinoma, 138582-R-J1 Merkel cell tumor, K60290-347-R-J1 and K57222-313-R-J1-PDC glioblastomas, 653999-131-R-J2-PDC, LG0703-F948-PDC, and 349418-098-R-PDC non-small cell lung carcinomas, 885512-296-R-J2-PDC, 171881-019-R-J1-PDC breast carcinomas and 186277-243-T-J2-PDC and 233499-124-R-J2-PDC colon carcinomas were obtained from the NCI Patient-Derived Models Repository (PDMR, https://pdmr.cancer.gov). The established cell lines NCI/ADR-RES (RRID:CVCL_14520 and OVCAR-5 (RRID:CVCL_1628) ovarian carcinomas, 786-O (RRID:CVCL_1051) and A498 (RRID:CVCL_A498) renal cell carcinoma, NCI-H211 (ATCC, cat. CRL-5824; RRID:CVCL_1529), NCI-H196 (ATCC, cat. CRL-5823, RRID:CVCL_1509), SW 1271 (ATCC, cat. CRL-2177, RRID:CVCL_1716) and NCI-H1876 (ATCC, cat. CRL-5902, RRID:CVCL_1503) small cell lung carcinomas, MDA-MB-231 (RRID:CVCL_0062) and MDA-MB-468 (RRID:CVCL_0419)breast carcinomas (10-12). Pooled donor human umbilical vein endothelial cells (HUVEC, Lonza, cat. CC-2519) and human mesenchymal stem cells (hMSC, Lonza, cat. PT-2501) were purchased from Lonza (Walkersville, MD).
Cell Culture. All cells were maintained in an incubator at 37 degrees C and 5% CO2 with 95% humidity. The PDC lines were cultured according to standard operating procedures established by the NCI PDMR (https://pdmr.cancer.gov). Briefly all PDCs were thawed and cultured in Matrigel-coated flasks prepared with a working solution of 1X Ham's F-12 nutrient mix, without supplementation (Invitrogen, Waltham, MA, cat. 11765054), 100 U/mL penicillin-streptomycin (Invitrogen, cat. 15140122), and 2.5% Matrigel (Corning Inc., Corning, NY, cat. 354248) for the first three passages. […]
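Note: spheroids exposed to agents for seven days before readout.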

As for `CC(C)c1c(-c2ccccc2)nc2c(C#N)c[nH]n2c1=O`, the viability, T/C reads like this: (compound 0.0316 µM) 98.4% and 88.9%; (compound 0.1 µM) 107% and 94.6%; (compound 0.316 µM) 108% and 93.6%; (compound 1 µM) 116% and 98.2%; (compound 3.16 µM) 109% and 88.9%; (compound 10 µM) 94.7% and 88.9%. In addition, the IC50 (curve of compound) was over 10000 nM.
For the compound `CC1COCCN1c1cc(C2(S(C)(=N)=O)CC2)nc(-c2ccnc3[nH]ccc23)n1` (stereo not given), the viability, T/C is 107% and 106% (compound 0.0316 µM); 85.1% and 117% (compound 0.1 µM); 79.9% and 107% (compound 0.316 µM); 57.8% and 84.8% (compound 1 µM); 38.3% and 58.8% (compound 3.16 µM); 37.8% and 56.7% (compound 10 µM). The IC50 (curve of compound) was 1810 nM and > 10000 nM.
Regarding `COc1ccc([C@@H](O)c2cc(-c3ncnc4cc(N5CCOCC5)ccc34)c(F)cc2Cl)nn1`, the viability, T/C (compound 0.0316 µM) is 101% and 104%; the viability, T/C (compound 0.1 µM) was 93.2% and 96.7%; the viability, T/C (compound 0.316 µM) is 77.3% and 87.9%; the viability, T/C (compound 1 µM) is 61.9% and 64.3%; the viability, T/C (compound 3.16 µM) was 44.9% and 50.9%; the viability, T/C (compound 10 µM) was 29.5% and 30.6%. Moreover, under “curve of compound”, the IC50 is 2190 nM and 2880 nM.
In the case of `NC1CC1c1ccc(-c2cccc(O)c2)cc1` (stereo not given), the IC50 (compound alone, run of 02/01/2022) is over 10000 nM.
`NC1CCC(NC2CC2c2ccccc2)CC1` (stereo not given): the viability, T/C (compound 0.316 µM) is 85.8% and 90%; the viability, T/C (compound 1 µM) was 86.8% [middle of 25 runs]. Also, the 50% inhibitory concentration (IC50) (compound alone, run of 01/18/2022) is over 10000 nM.
Take `Nc1ncn(C2CC(O)C(CO)O2)c(=O)n1` (stereo not given) + NC1CC1c1ccc(-c2cccc(O)c2)cc1: the IC50 is over 1000 nM (curve of first compound, second compound 0.1 µM); over 1000 nM (curve of first compound, second compound 0.316 µM); over 1000 nM (curve of first compound, second compound 1 µM); over 1000 nM (curve of first compound, second compound 3.16 µM); over 1000 nM (curve of first compound, second compound 10 µM). Further, the viability, T/C is 103% (second compound 0.1 µM, first compound 0.00316 µM); 101% (second compound 0.1 µM, first compound 0.01 µM); 96.3% (second compound 0.1 µM, first compound 0.0316 µM); 79.4% (second compound 0.1 µM, first compound 0.1 µM); 83.6% (second compound 0.1 µM, first compound 0.316 µM); 73.5% (second compound 0.1 µM, first compound 1 µM). Also, the viability, T/C reads like this: (second compound 0.316 µM, first compound 0.00316 µM) 87.8%; (second compound 0.316 µM, first compound 0.01 µM) 113%; (second compound 0.316 µM, first compound 0.0316 µM) 87.8%; (second compound 0.316 µM, first compound 0.1 µM) 87.5%; (second compound 0.316 µM, first compound 0.316 µM) 85.4%; (second compound 0.316 µM, first compound 1 µM) 79.9%. For the same compound, the viability, T/C is 91.2% (second compound 1 µM, first compound 0.00316 µM); 92% (second compound 1 µM, first compound 0.01 µM); 95.5% (second compound 1 µM, first compound 0.0316 µM); 81.3% (second compound 1 µM, first compound 0.1 µM); 86.5% (second compound 1 µM, first compound 0.316 µM); 67.5% (second compound 1 µM, first compound 1 µM). In addition, the viability, T/C runs as follows: (second compound 3.16 µM, first compound 0.00316 µM) 94%; (second compound 3.16 µM, first compound 0.01 µM) 112%; (second compound 3.16 µM, first compound 0.0316 µM) 93.7%; (second compound 3.16 µM, first compound 0.1 µM) 101%; (second compound 3.16 µM, first compound 0.316 µM) 93.8%; (second compound 3.16 µM, first compound 1 µM) 90%. The viability, T/C is, setting by setting: (second compound 10 µM, first compound 0.00316 µM) 94.3%; (second compound 10 µM, first compound 0.01 µM) 103%; (second compound 10 µM, first compound 0.0316 µM) 90.7%; (second compound 10 µM, first compound 0.1 µM) 93.5%; (second compound 10 µM, first compound 0.316 µM) 84.8%; (second compound 10 µM, first compound 1 µM) 95.6%.
